Reference: PMC11242640 (International Journal of Molecular Sciences, 2024)
Read-outs that look alike come from different tables or passages of the source.

Columns and labels:
[1] = DPPH radical scavenging activity; details: for IC50: 30 min, 25 °C, dash = IC50 value not achieved; for DPPH Inhibition (%): at maximal concentration tested
Excerpt: DPPH is the most commonly used method to determine the antioxidant activity of different potential antioxidants. DPPH is a stable organic radical capable of accepting an electron or a hydrogen radical and changing into a non-radical form, DPPH-H [50]. The percentage of radical quenching is used as a measure of the compound antioxidant capacity.
DPPH radical scavenging activity. The stable radical 1,1-diphenyl-2-picrylhydrazyl (DPPH, Sigma–Aldrich, St. Louis, MO, USA) is the reagent used in this spectrophotometric test. The DPPH ethanolic solution (c = 8⋅10^−4 mol/L) was prepared daily and stored in a dark flask at 4 °C between the measurements. […] The reaction mixture was vortexed and incubated in the dark for 30 min at 25 °C. […] Antioxidant substances reduce the DPPH radical and decrease its absorbance at this wavelength. The DPPH inhibition, reported as a percentage, was obtained according to the equation: Inhibition (%) = [(AC(0) − AA(t))/AC(0)] × 100, where AC(0) is the absorbance of the control at t = 0 min and AA(t) is the absorbance of the antioxidant at t = 30 min. Each of the measurements was conducted three times. Inhibition percentages were expressed as mean values ± standard deviation. IC50 values were calculated using a nonlinear fit of compound concentration values versus the inhibition percentage.

[2] = molecular target: eeAChE (Electrophorus electricus, UniProt O42275); assay: eeAChE inhibition, modified Ellman's method; format: biochemical
Chain of eeAChE (O42275 24-633): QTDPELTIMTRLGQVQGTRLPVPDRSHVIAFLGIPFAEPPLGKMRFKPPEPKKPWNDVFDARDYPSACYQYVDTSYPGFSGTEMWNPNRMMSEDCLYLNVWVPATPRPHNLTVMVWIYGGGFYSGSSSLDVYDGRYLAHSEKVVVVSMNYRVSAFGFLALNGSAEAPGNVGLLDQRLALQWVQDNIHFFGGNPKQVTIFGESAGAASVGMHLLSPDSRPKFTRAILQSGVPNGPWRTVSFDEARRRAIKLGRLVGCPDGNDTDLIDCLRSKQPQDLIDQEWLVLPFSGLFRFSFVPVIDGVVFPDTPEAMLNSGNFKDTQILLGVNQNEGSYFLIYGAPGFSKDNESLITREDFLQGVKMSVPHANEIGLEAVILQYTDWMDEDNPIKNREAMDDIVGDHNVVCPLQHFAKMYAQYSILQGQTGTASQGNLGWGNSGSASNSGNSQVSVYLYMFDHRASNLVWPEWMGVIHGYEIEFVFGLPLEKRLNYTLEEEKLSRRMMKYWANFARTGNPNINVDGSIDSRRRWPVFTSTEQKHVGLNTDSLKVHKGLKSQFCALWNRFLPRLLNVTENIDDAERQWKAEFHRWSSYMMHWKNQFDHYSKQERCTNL
Method: (§1) Enzymes were prepared in 20 mM Tris buffer pH 7.5 and DTNB, ATChI, and BTChI in 50 mM Tris buffer pH 8.0. Cholinesterase activity was evaluated using a 96-well microplate reader (Bio Tek 800TSUV Absorbance Reader, Agilent, Santa Clara, CA, USA) at room temperature. The microplate well was filled with 180 μL of Tris buffer (50 mM, pH 8.0), 10 μL of tested solutions (final concentrations in a range of 20–1000 μM), 10 μL of an enzyme (final concentration 0.04 U/mL), 10 μL of DTNB (final concentration 0.3 mM), and […] of ATChI/BTChI (final concentration of 0.5 mM). […] Without the use of inhibitors and enzymes, non-enzymatic hydrolysis was evaluated as a blank for the control measurement. The non-enzymatic hydrolysis reaction with an added inhibitor was used as a blank for the samples. The same volume of buffer was substituted for the enzyme. All experiments were run in triplicate. The following formula was applied to calculate the inhibition percentage: Inhibition (%) = [(AC − AT)/AC] × 100, where AC is the activity of the enzyme without a test sample and AT is the activity of the enzyme with a test sample. […] The inhibitory activity of ethanol was subtracted from all the samples. The IC50 values were obtained by a nonlinear fit of compound concentration values versus the response.

[3] = CUPRAC reducing antioxidant capacity assay; details: Trolox equivalent, pH 7.0
Excerpt: The CUPRAC test is based on the reduction of Cu^2+ to Cu^+ due to the action of antioxidants. A reaction occurs at a pH 7.0 (close to physiological pH) in the presence of neocuproin. The reactive Ar-OH groups of polyphenols and other antioxidants are oxidized to the corresponding quinones, and Cu^2+-neocuproin is reduced to the colored complex Cu^+-neocuproin [51].
CUPRAC-reducing-antioxidant-capacity assay. […] Ammonium acetate, neocuproine, copper(II) chloride, and standard Trolox were purchased from Sigma–Aldrich (St. Louis, MO, USA). The reaction mixture contained 1 mL of each of these solutions: NH4Ac buffer (1 M, pH 7.0), Cu(II) chloride (10 mM), and neocuproine (7.5 mM, dissolved in ethanol). To make a final volume of 4.1 mL, x mL of the testing sample (or standard Trolox) and (1,1-x) mL of H2O were added to an initial mixture. The tubes were vortexed and left for 30 min at room temperature. As a blank test, the same mixture was used only without the test sample. Absorbance was recorded at 450 nm (UV-1800 UV/Vis spectrophotometer, Shimadzu, Kyoto, Japan).

[4] = molecular target: T1, eqBChE (Equus caballus, UniProt P81908); assay: eqBChE inhibition, modified Ellman's method; format: biochemical; details: for inhibition of BChE: concentration not given
T1 construct: eqBChE (from equine serum); purchased Sigma–Aldrich (St. Louis, MO, USA); host or cells: equine serum
T1 sequence (P81908 whole entry): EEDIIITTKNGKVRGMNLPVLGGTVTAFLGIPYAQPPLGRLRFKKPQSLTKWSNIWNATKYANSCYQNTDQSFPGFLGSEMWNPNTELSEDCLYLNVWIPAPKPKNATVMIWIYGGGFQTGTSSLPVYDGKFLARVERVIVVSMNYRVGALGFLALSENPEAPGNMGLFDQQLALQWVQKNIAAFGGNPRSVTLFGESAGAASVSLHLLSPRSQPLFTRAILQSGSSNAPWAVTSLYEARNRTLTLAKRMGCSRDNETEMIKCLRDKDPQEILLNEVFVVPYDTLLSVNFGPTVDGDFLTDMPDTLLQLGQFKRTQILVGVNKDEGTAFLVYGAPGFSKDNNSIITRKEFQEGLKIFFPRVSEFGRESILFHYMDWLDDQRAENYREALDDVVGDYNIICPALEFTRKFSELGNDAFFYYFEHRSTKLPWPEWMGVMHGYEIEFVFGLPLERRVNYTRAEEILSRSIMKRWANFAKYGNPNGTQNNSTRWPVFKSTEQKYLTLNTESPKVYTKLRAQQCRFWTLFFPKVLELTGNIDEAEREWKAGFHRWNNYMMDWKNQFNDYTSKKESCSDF
Method: as §1

[5] = read-out: eeAChE Inhibition (%)
[6] = read-out: eqBChE Inhibition (%)

| Compound | IC50 [1] | DPPH Inhibition (%) ([1]; 500 μM) | IC50 ([2]; dash = IC50 value not achieved) | inhibition at 500 µM [2, 5] | CUPRAC [3] | IC50 ([4]; dash = IC50 value not achieved) | inhibition at 500 µM [4, 6] | further results |
| --- | --- | --- | --- | --- | --- | --- | --- | --- |
| COc1ccc(O)c(/C=C/c2cccs2)c1 [Compound 3, (E)-4-methoxy-2-(2-(thiophen-2-yl)vinyl)phenol] | 36.2 µM | 87.7 ± 0.8 (500) % | 405 µM | 77.8 ± 5.2% | 1.111 mol TE/mol of Compound | 206 µM | 68.5 ± 6.2% |  |
| COc1ccc(O)c(/C=C/c2ccc(C)s2)c1 [Compound 7, (E)-4-methoxy-2-(2-(5-methylthiophen-2-yl)vinyl)phenol] | 23.8 µM |  |  |  | 2.350 mol TE/mol of Compound |  |  | DPPH Inhibition (%) ([1]; 50 μM): 86.2 ± 2.3 (50) %; IC50 [2]: 62.9 µM; inhibition at 200 µM [2, 5]: 81.1 ± 1.1%; IC50 [4]: 42.5 µM; inhibition at 200 µM [4, 6]: 83.1 ± 0.8% |
| Cc1cnc(/C=C\c2cc(F)ccc2O)s1 [Compound 9, (Z)-4-fluoro-2-(2-(5-methylthiazol-2-yl)vinyl)phenol] | 428 µM | 55.4 ± 0.7 (500) % | > 100 µM |  | 1.000 mol TE/mol of Compound | > 250 µM |  | inhibition at 100 µM [2, 5]: 17.6 ± 3.1%; inhibition at 250 µM [4, 6]: 10.5 ± 4.1% |
| COc1ccc(/C=C/c2ncc(C)s2)c(O)c1 [Compound 11, (E)-5-methoxy-2-(2-(5-methylthiazol-2-yl)vinyl)phenol] | 30.1 µM |  | > 100 µM | 29.3 ± 1.8% |  | > 250 µM | 9.8 ± 2.7% | DPPH Inhibition (%) ([1]; 524 μM): 89.8 ± 0.0 (524) %; inhibition of BChE [4]: < 50% |
| Cc1ccc(O)c(/C=C/c2cccs2)c1 [Compound 4, (E)-4-methyl-2-(2-(thiophen-2-yl)vinyl)phenol] | 51.4 µM |  | 225 µM |  | 0.852 mol TE/mol of Compound | 36.5 µM |  | DPPH Inhibition (%) ([1]; 400 μM): 90.3 ± 0.6 (400) %; inhibition at 250 µM [2, 5]: 82.1 ± 1.1%; inhibition at 250 µM [4, 6]: 81.1 ± 2.2% |
| Cc1cnc(/C=C\c2cc(Cl)ccc2O)s1 [Compound 10, (Z)-4-chloro-2-(2-(5-methylthiazol-2-yl)vinyl)phenol] | > 250 µM | 24.0 ± 0.7 (500) % | > 100 µM | 34.2 ± 2.1% | 0.630 mol TE/mol of Compound | > 250 µM | 22.4 ± 9% |  |
| Oc1ccc(Cl)cc1/C=C/c1cccs1 [Compound 2, (E)-4-chloro-2-(2-(thiophen-2-yl)vinyl)phenol] | 265 µM | 65.0 ± 2.4 (500) % | 82.3 µM |  | 0.713 mol TE/mol of Compound | 53 µM |  | inhibition at 250 µM [2, 5]: 83 ± 2.5%; inhibition at 200 µM [4, 6]: 80.4 ± 6.4% |
| Cc1cnc(/C=C/c2ccc(O)cc2)s1 [Compound 12, (E)-4-(2-(5-methylthiazol-2-yl)vinyl)phenol] | 140 µM |  | > 100 µM | 9.1 ± 1.4% |  | 189 µM | 68.4 ± 1.3% | DPPH Inhibition (%) ([1]; 524 μM): 74.1 ± 0.4 (524) % |
| Cc1ccc(O)c(/C=C/c2ccc(C)s2)c1 [Compound 8, (E)-4-methyl-2-(2-(5-methylthiophen-2-yl)vinyl)phenol] | 26.3 µM |  |  |  | 1.148 mol TE/mol of Compound |  |  | DPPH Inhibition (%) ([1]; 250 μM): 89.3 ± 1.2 (250) %; IC50 [2]: 92.4 µM; inhibition at 150 µM [2, 5]: 78.2 ± 7.7%; IC50 [4]: 24.8 µM; inhibition at 250 µM [4, 6]: 88.5 ± 5% |
| Cc1cnc(/C=C/c2ccccc2O)s1 [Compound 13, (E)-2-(2-(5-methylthiazol-2-yl)vinyl)phenol] | 699 µM |  | > 100 µM | 17.1 ± 3.9% |  | 30.7 µM | 78.2 ± 3.8% | DPPH Inhibition (%) ([1]; 1047 μM): 59.8 ± 2.3 (1047) % |
| Cc1cnc(/C=C/c2cccc(O)c2)s1 [Compound 14, (E)-3-(2-(5-methylthiazol-2-yl)vinyl)phenol] | > 250 µM |  | > 100 µM |  |  | > 250 µM |  | DPPH Inhibition (%) ([1]; 250 μM): 11.2 ± 2.7 (250) %; inhibition at 250 µM [2, 5]: 10.7 ± 2.4%; inhibition of BChE [4]: < 50%; inhibition at 250 µM [4, 6]: 15.6 ± 3.6% |
| Cc1ccc(/C=C/c2cc(F)ccc2O)s1 [Compound 5, (E)-4-fluoro-2-(2-(5-methylthiophen-2-yl)vinyl)phenol] | 130 µM |  | 155 µM |  | 0.204 mol TE/mol of Compound | 22.9 µM |  | DPPH Inhibition (%) ([1]; 400 μM): 83.0 ± 1.9 (400) %; inhibition at 250 µM [2, 5]: 84.6 ± 2.7%; inhibition at 100 µM [4, 6]: 75.3 ± 2.3% |
| Oc1ccc(F)cc1/C=C/c1cccs1 [Compound 1, (E)-4-fluoro-2-(2-(thiophen-2-yl)vinyl)phenol] | 159 µM | 77.2 ± 0.5 (500) % | 178 µM | 80.9 ± 1.9% | 0.925 mol TE/mol of Compound | 66 µM |  | inhibition at 400 µM [4, 6]: 83.5 ± 0.8% |
| Cc1ccc(/C=C/c2cc(Cl)ccc2O)s1 [Compound 6, (E)-4-chloro-2-(2-(5-methylthiophen-2-yl)vinyl)phenol] | > 250 µM |  |  |  | 1.407 mol TE/mol of Compound |  |  | DPPH Inhibition (%) ([1]; 400 μM): 42.9 ± 2.7 (400) %; IC50 [2]: 27.1 µM; inhibition at 80 µM [2, 5]: 82.4 ± 0.8%; IC50 [4]: 39.7 µM; inhibition at 100 µM [4, 6]: 84 ± 1.8% |
